ChEMBL document CHEMBL1201862, “PubChem BioAssay data set” (2004)
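All cell lines were grown in 96-well plates and treated with compound for 48 hours. GI50: concentration for 50% inhibition of growth.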 Active and inactive are the calls of the source. Cut-off read from the data, not from the text of the source: active = GI50 up to about 1.1 µM and inactive = higher.

Experiments:
Assay in all cases: NCI-60 cell line screen, 48 h
T47D = tested on: T47D
U-251 = tested on: U-251
SF-268 = tested on: SF-268
SNB-75 = tested on: SNB-75
HOP-62 = tested on: HOP-62
HL-60 = tested on: HL-60
RXF 393 = tested on: RXF 393
A498 = tested on: A498
SK-OV-3 = tested on: SK-OV-3
CCRF-CEM = tested on: CCRF-CEM
EKVX = tested on: EKVX
LOX IMVI = tested on: LOX IMVI
SF-539 = tested on: SF-539
OVCAR-8 = tested on: OVCAR-8
HT-29 = tested on: HT-29
SF-295 = tested on: SF-295
OVCAR-5 = tested on: OVCAR-5
DU-145 = tested on: DU-145
SR = tested on: SR
ACHN = tested on: ACHN

Compound	GI50 (T47D)	GI50 (U-251)	GI50 (SF-268)	GI50 (SNB-75)	GI50 (HOP-62)	GI50 (HL-60)	GI50 (RXF 393)	GI50 (A498)	GI50 (SK-OV-3)	GI50 (CCRF-CEM)	GI50 (EKVX)	GI50 (LOX IMVI)	GI50 (SF-539)	GI50 (OVCAR-8)	GI50 (HT-29)	GI50 (SF-295)	GI50 (OVCAR-5)	GI50 (DU-145)	GI50 (SR)	GI50 (ACHN)
O=C1CC2(CCNCC2)C(=O)N1N1CCCCC1	> 100 µM (inactive)	> 100 µM (inactive)	> 100 µM (inactive)	> 100 µM (inactive)	> 100 µM (inactive)	> 100 µM (inactive)	> 100 µM (inactive)	> 100 µM (inactive)	> 100 µM (inactive)	> 100 µM (inactive)	> 100 µM (inactive)	> 100 µM (inactive)	> 100 µM (inactive)	> 100 µM (inactive)	> 100 µM (inactive)	> 100 µM (inactive)	> 100 µM (inactive)	> 100 µM (inactive)	> 100 µM (inactive)	> 100 µM (inactive)
CC(C)=CC[S+]([O-])c1ccccc1NC1=CC(=O)CC(C)(C)C1 (centres undefined)	> 100 µM (inactive)	0.223 µM (active)	> 100 µM (inactive)	> 100 µM (inactive)	0.124 µM (active)	> 100 µM (inactive)	> 100 µM (inactive)	> 100 µM (inactive)	> 100 µM (inactive)	> 100 µM (inactive)	> 100 µM (inactive)	> 100 µM (inactive)	> 100 µM (inactive)	> 100 µM (inactive)	> 100 µM (inactive)	–	> 100 µM (inactive)	> 100 µM (inactive)	> 100 µM (inactive)	> 100 µM (inactive)
COC(=O)C1=C(C(=O)OC)SC2(S1)C(C(=O)OC)=C(C(=O)OC)Sc1c2ss/c1=N\c1ccc(Cl)cc1	1.06 µM (active)	1.35 µM (inactive)	1.13 µM (inactive)	1.07 µM (active)	1.67 µM (inactive)	1.11 µM (active)	0.256 µM (active)	1.77 µM (inactive)	2 µM (inactive)	0.197 µM (active)	1.45 µM (inactive)	0.339 µM (active)	0.51 µM (active)	1.32 µM (inactive)	0.525 µM (active)	2.19 µM (inactive)	1.45 µM (inactive)	0.479 µM (active)	0.277 µM (active)	1.4 µM (inactive)
COc1ccc2c(O)c1-c1c(OC)ccc(c1O)SSc1ccc(OC)c(c1O)-c1c(OC)ccc(c1O)SS2	20.8 µM (inactive)	19.2 µM (inactive)	27.4 µM (inactive)	36.7 µM (inactive)	> 100 µM (inactive)	8.15 µM (inactive)	16.1 µM (inactive)	> 100 µM (inactive)	> 100 µM (inactive)	4.56 µM (inactive)	7.87 µM (inactive)	26.7 µM (inactive)	4.45 µM (inactive)	32.9 µM (inactive)	> 100 µM (inactive)	> 100 µM (inactive)	66.4 µM (inactive)	29 µM (inactive)	4.27 µM (inactive)	5.32 µM (inactive)
CC1=C(C(=O)Nc2ccccc2)C2(CCCCC2)C(C#N)=C(SCC(=O)Nc2ccc(Br)cc2)N1	5.19 µM (inactive)	4.51 µM (inactive)	2.2 µM (inactive)	8.51 µM (inactive)	10.1 µM (inactive)	3.18 µM (inactive)	4.54 µM (inactive)	4.56 µM (inactive)	8.79 µM (inactive)	1.46 µM (inactive)	2.15 µM (inactive)	3.43 µM (inactive)	13.3 µM (inactive)	5.58 µM (inactive)	2.45 µM (inactive)	4.2 µM (inactive)	4.99 µM (inactive)	7.76 µM (inactive)	2.31 µM (inactive)	4.45 µM (inactive)
O=C(OC1C#CCSCC#C/C=C\1)c1ccc2c(c1)C(=O)c1ccccc1C2=O (centres undefined)	> 100 µM (inactive)	16.2 µM (inactive)	21.6 µM (inactive)	26.4 µM (inactive)	16.5 µM (inactive)	> 100 µM (inactive)	18.4 µM (inactive)	33.3 µM (inactive)	18.1 µM (inactive)	> 100 µM (inactive)	64.7 µM (inactive)	> 100 µM (inactive)	15.5 µM (inactive)	68.5 µM (inactive)	> 100 µM (inactive)	28 µM (inactive)	> 100 µM (inactive)	> 100 µM (inactive)	25.5 µM (inactive)	55 µM (inactive)
CCOC(=O)c1ccc(/N=C2\SC(=S)N(c3ccc(F)cc3)\C2=N/c2ccc(C(=O)OCC)cc2)cc1	5.19 µM (inactive)	20.6 µM (inactive)	7.4 µM (inactive)	20.2 µM (inactive)	> 58.7 µM (inactive)	5.78 µM (inactive)	9.68 µM (inactive)	> 100 µM (inactive)	86.9 µM (inactive)	6.95 µM (inactive)	22.1 µM (inactive)	5.73 µM (inactive)	20 µM (inactive)	7.53 µM (inactive)	30.5 µM (inactive)	48.3 µM (inactive)	23 µM (inactive)	39.2 µM (inactive)	2.2 µM (inactive)	13.6 µM (inactive)
